# Results: patent publication US12552796B2, “EED inhibitor, and preparation method therefor and use thereof” (SHANGHAITECH UNIVERSITY, priority 2019, dated 2026)
# What was measured:
# [1] = test system: cellular H3K27 methylation; test: Cellular H3K27 methylation assay (Western blot of H3K27me3 in HeLa cells); type: cell-based; conditions: Homo sapiens, 72 h; HeLa cells, 3 days, H3K27me3 level by Western blot; read-out: PD IC50
# [2] = test system: WSU-DLCL2 cells; test: Cell proliferation assay, WSU-DLCL2; type: cell-based; conditions: Homo sapiens, WSUDLCL2; WSU-DLCL2 cells, cultured to the 9th day; read-out: Anti-proliferation IC50
# Procedure: (§1) Human B-cell non-Hodgkin's lymphoma cells WSU-DLCL2, Karpas422 and Pfeiffer were cultured in cell culture flasks in a sterile incubator with 95% relative humidity and 5% CO2 at 37° C. The medium was RPMI-1640 (Gibco, product No. 31800022) containing 15% fetal bovine serum (FBS, Gibco, product No. 10099141) and 0.1% penicillin/streptomycin solution (P/S). In order to assay the effects of compounds on cell proliferation, cells in exponential growth phase were seeded into a 12-well plate (Nunc, product No. 150628) with 1 mL of medium per well, wherein WSU-DLCL2 and Karpas422 were seeded at a density of 1×10^5 cells/well, and Pfeiffer was seeded at a density of 2×10^5 cells/well. At the same time, different concentrations of compounds were added to the wells that had seeded with cells (6 concentrations were set for each compound at 3-fold serial dilution), and the final concentration of DMSO was 0.1%. After that, the number of viable cells was determined by Vi-CELL (Beckman Coulter) for WSU-DLCL2 and Pfeiffer every 3 days, and for Karpas422 on days 4, 7, and 11, respectively. The cells counted each time were seeded into a new 12-well plate at the same density, and supplemented with fresh medium to 1 mL. Different concentrations of compounds were added at the same time. WSU-DLCL2 and Pfeiffer were cultured to the 9th day, and Karpas422 was cultured to the 14th day. Cell data were collected uniformly, and analyzed with GraphPad prisim5. Dose curves were fitted, and IC50 values of the assay compounds were obtained.
# [3] = test system: Karpas422 cells; test: Cell proliferation assay, Karpas422; type: cell-based; conditions: Homo sapiens, KARPAS-422; Karpas422 cells, cultured to the 14th day; read-out: Anti-proliferation IC50
# Procedure: as §1
# [4] = test system: Pfeiffer cells; test: Cell proliferation assay, Pfeiffer; type: cell-based; conditions: Homo sapiens, cultured to the 9th day, read-out: Anti-proliferation IC50
# Procedure: as §1
# [5] = Pharmacokinetic study in rats; type: in vivo, SD rats; conditions: rat; for AUC(0-inf) / Cmax / Tmax / clearance / half-life / MRT inf: male, SD, plasma; for MRT inf: read-out: MRT0-∞
# Procedure: Six SPF SD rats, male, weighing 180-220 g, were randomly divided into 2 groups with 3 rats in each group. The compounds of the present disclosure were administered by oral gavage (PO) and intravenous injection (IV), respectively, and the assay compounds were formulated with a vehicle (5% DMSO+10% Solutol+85% pH 4.65 Acetate buffer).
# Dosage: 1 mg/kg for intravenous injection and 2 mg/kg for oral administration.
# (§2) Dosing volume: 5 mL/kg for intravenous injection and 10 mL/kg for oral administration.
# (§3) The oral administration group was fasted overnight (10-14 h) before the assay, and drank water freely. After 4 hours of administration, they were fed uniformly. They were weighed before administration, and the dosage was calculated according to the body weight.
# Intravenous administration: 0.083, 0.25, 0.5, 1, 2, 4, 6, 8, 10 and 24 h after administration;
# Oral gavage administration: 0.25, 0.5, 1, 2, 4, 6, 8, 10, 12 and 24 h after administration;
# (§4) Blood was collected from the jugular vein of rats at the above set time points, about 0.2 mL each time. The blood was anticoagulated with heparin sodium, placed on ice after collection, and centrifuged within 1 hour to separate the plasma (centrifugation conditions: 6800 g, 6 minutes, 2-8° C.). Plasma samples were stored in a −80° C. freezer prior to analysis.
# The concentration of each compound in rat plasma was determined by LC/MS/MS method.
# (§5) Through the plasma drug concentration data at different time points, pharmacokinetic parameters were calculated using Phoenix WinNonlin 7.0, thereby providing parameters such as AUC0-t, AUC0-∞, MRT0-∞, Cmax, Tmax, and T1/2 and mean and standard deviation thereof.
# [6] = Pharmacokinetic study in canine; type: in vivo, Beagle dogs; conditions: Beagle dog; for AUC(0-inf) / Cmax / Tmax / clearance / half-life / MRT inf: male, plasma; for MRT inf: read-out: MRT0-∞
# Procedure: Six ordinary Beagle dogs, male, weighing 10-12 kg, were randomly divided into 2 groups with 3 dogs in each group. The compounds of the present disclosure were administered by oral gavage (PO) and intravenous injection (IV), respectively, and the assay compounds were formulated with the corresponding vehicles.
# Dosage: 1 mg/kg for intravenous injection and 5 mg/kg for oral administration.
# as §2
# as §3, with “weight. 2. Blood collection time point and sample processing:” for “weight.”
# Intravenous administration: 0.083, 0.25, 0.5, 1, 2, 4, 8, 12 and 24 h after administration;
# Oral gavage administration: 0.25, 0.5, 1, 2, 4, 6, 8, 12 and 24 h after administration;
# as §4, with “veins” for “jugular vein”, “extremities,” for “rats at the above set time points,”, “0.5-1” for “0.2”
# The concentration of each compound in canine plasma was determined by LC/MS/MS method.
# as §5
# [7] = test system: Karpas 422 human B-cell lymphoma cells; test: Mouse Karpas422 CDX model, tumor growth; type: in vivo, balb/c nude mice; conditions: Karpas422 CDX mice; for tumor growth inhibition (TGI %), Day 11 after administration / tumor growth inhibition (TGI %), Day 21 after administration: intragastric; for effect on tumor growth (FIG. 1): different dosages
# Procedure: Female balb/c nude mice aged 6-8 weeks were selected and housed under SPF conditions (i.e., 20-22° C.; 40-70% relative humidity) in individual ventilated cages at constant temperature and humidity. There were 5 or fewer animals in each cage. Animals had access to dry pelleted food sterilized by irradiation and sterile drinking water. Karpas 422 human B-cell lymphoma cells were cultured in RPMI-1640 (Gibco, product No. 31800022) containing 15% fetal bovine serum (FBS, Gibco, product No. 10099141) and 0.1% penicillin/streptomycin solution (P/S). The cells were cultured in a sterile incubator at a temperature of 37° C., a relative humidity of 95%, and 5% CO2. Karpas 422 cells cultured in vitro were maintained at a concentration between 0.5-2×10^6 cells/mL cells in suspension culture and passaged at a 1:3 dilution every 2-4 days. To establish the xenograft model, cells were collected, resuspended in PBS, mixed 1:1 by volume with Matrigel (BD) at a concentration of 5×10^7 cells/mL, and then injected subcutaneously into the right side of balb/c nude mice (Vital River) with 5×10^6 cells per animal. When tumors grew to about 150 mm^3, mice were divided into groups with 6 mice in each group. The mice were administered intragastrically, and the tumor size and mouse body weight were measured twice a week. The two largest diameters of the transplanted tumor, width (W) and length (L), were manually measured with a vernier caliper, and the tumor volume was estimated using the formula: 0.5×L×W^2. After the assay, the mice were euthanized.
# The assay compounds were prepared as a suspension in pure water containing 0.5% HPMC+0.5% Tween 80 as a solvent. The dosing volume was 10 mL/kg.
# In this study, changes in mouse tumor volume and relative changes in mouse body weight were assayed, and the results were shown in FIGS. 1 and 2.
Structure (SMILES),IC50 [1] [nM],IC50 [2] [nM],IC50 [3] [nM],IC50 [4] [nM],"AUC(0-inf) ([5]; IV, 1 mg/kg) [ng·h/mL]","Cmax ([5]; IV, 1 mg/kg) [ng/mL]","Tmax ([5]; IV, 1 mg/kg) [h]","clearance ([5]; IV, 1 mg/kg) [mL/min/kg]","half-life ([5]; IV, 1 mg/kg) [h]","MRT inf ([5]; IV, 1 mg/kg) [h]","AUC(0-inf) ([5]; PO, 2 mg/kg) [ng·h/mL]","Cmax ([5]; PO, 2 mg/kg) [ng/mL]","Tmax ([5]; PO, 2 mg/kg) [h]","half-life ([5]; PO, 2 mg/kg) [h]","MRT inf ([5]; PO, 2 mg/kg) [h]","F ([5]; PO, 2 mg/kg) [%]","F ([6]; PO, 5 mg/kg) [%]","AUC(0-inf) ([6]; IV, 1 mg/kg) [ng·h/mL]","Cmax ([6]; IV, 1 mg/kg) [ng/mL]","Tmax ([6]; IV, 1 mg/kg) [h]",other results
CN(C(=O)C1CC1)c1cnc(NCc2c(F)ccc3c2CCO3)n2cnnc12 [HJM-045],13,9.2,13.5,10.5,639,794,0.08,26.4,1.17,1.06,628,119,2.83,1.46,3.51,48.40,90.95,4500,1150,0.08,"clearance ([6]; IV, 1 mg/kg): 3.7 mL/min/kg; half-life ([6]; IV, 1 mg/kg): 4.13 h; MRT inf ([6]; IV, 1 mg/kg): 5.35 h; AUC(0-inf) ([6]; PO, 5 mg/kg): 20700 ng·h/mL; Cmax ([6]; PO, 5 mg/kg): 3700 ng/mL; Tmax ([6]; PO, 5 mg/kg): 0.5 h; half-life ([6]; PO, 5 mg/kg): 4.29 h; MRT inf ([6]; PO, 5 mg/kg): 5.75 h; tumor growth inhibition (TGI %), Day 11 after administration ([7]; 30 mg/kg): 0.25%; tumor growth inhibition (TGI %), Day 21 after administration ([7]; 30 mg/kg): 60.06%; tumor growth inhibition (TGI %), Day 11 after administration ([7]; 100 mg/kg): 10.7%; tumor growth inhibition (TGI %), Day 21 after administration ([7]; 100 mg/kg): 81.43%; effect on tumor growth (FIG. 1) [7]: complete tumor disappearance"
Fc1ccc2c(c1CNc1ncc(OC3CCOCC3)c3nncn13)CCO2 [HJM-016],34.7,86.4,74.9,55.7,2060,932,0.08,8.24,2.33,2.94,3900,482,4,2.8,5.58,98.86,62.50,8840,1220,0.08,"clearance ([6]; IV, 1 mg/kg): 1.92 mL/min/kg; half-life ([6]; IV, 1 mg/kg): 5.87 h; MRT inf ([6]; IV, 1 mg/kg): 8.39 h; AUC(0-inf) ([6]; PO, 5 mg/kg): 27200 ng·h/mL; Cmax ([6]; PO, 5 mg/kg): 2900 ng/mL; Tmax ([6]; PO, 5 mg/kg): 2 h; half-life ([6]; PO, 5 mg/kg): 5.18 h; MRT inf ([6]; PO, 5 mg/kg): 7.97 h; tumor growth inhibition (TGI %), Day 11 after administration ([7]; 30 mg/kg): 8.5%; tumor growth inhibition (TGI %), Day 21 after administration ([7]; 30 mg/kg): 56.1%; tumor growth inhibition (TGI %), Day 11 after administration ([7]; 100 mg/kg): 52.3%; tumor growth inhibition (TGI %), Day 21 after administration ([7]; 100 mg/kg): 105.39%; effect on tumor growth (FIG. 1) [7]: complete tumor disappearance"
Fc1ccc2c(c1CNc1ncc(OCC3COC3)c3nncn13)CCO2 [HJM-104],52.7,29.6,102,81.6,1980,1360,0.08,8.47,2.7,2.37,3470,586,3.33,2.21,4.43,89.41,102.43,3230,864,0.08,"clearance ([6]; IV, 1 mg/kg): 5.9 mL/min/kg; half-life ([6]; IV, 1 mg/kg): 1.67 h; MRT inf ([6]; IV, 1 mg/kg): 2.86 h; AUC(0-inf) ([6]; PO, 5 mg/kg): 16500 ng·h/mL; Cmax ([6]; PO, 5 mg/kg): 3380 ng/mL; Tmax ([6]; PO, 5 mg/kg): 1 h; half-life ([6]; PO, 5 mg/kg): 2.09 h; MRT inf ([6]; PO, 5 mg/kg): 3.53 h; tumor growth inhibition (TGI %), Day 11 after administration ([7]; 30 mg/kg): 39.4%; tumor growth inhibition (TGI %), Day 21 after administration ([7]; 30 mg/kg): 93.29%; tumor growth inhibition (TGI %), Day 11 after administration ([7]; 100 mg/kg): 88.9%; tumor growth inhibition (TGI %), Day 21 after administration ([7]; 100 mg/kg): 111.9%; effect on tumor growth (FIG. 1) [7]: complete tumor disappearance"
